Laboratory results from patent US20250115943A1, “SYSTEM AND METHOD FOR ANTIMICROBIAL SUSCEPTIBILITY TESTING” (priority 2023, published 2025).
≈ marks a conversion by molar mass, not a printed value. Like-named read-outs stand apart in the source and are kept apart here.

Key:
[1] = system: E. coli ATCC 25922; conditions: CLSI M100-Ed34E, cited from earlier work
[2] = system: P. mirabilis LSI 4698; experiment: reference broth microdilution (rBMD); type: cell-based; conditions: Proteus mirabilis, LSI4698
[3] = system: K. pneumoniae LSI 4552; experiment: reference broth microdilution (rBMD); type: cell-based; conditions: Klebsiella pneumoniae, LSI4552
Method: (§1) Following optimization of the BLAST assay, two other tests were performed in which 12 antibiotics (covering different classes) and 8 bacterial strains (Gram-positive and Gram-negative) were assayed using the same method as described above. Different bacterial strains were tested against different antibiotics and for each pair tested, the BLAST MIC value was compared to the CLSI QC range where available, or to the reference broth microdilution (rBMD) MIC which was determined in parallel with the BLAST assay following the CLSI protocols (see references [9]).

[4] = system: P. mirabilis LSI 4933; experiment: reference broth microdilution (rBMD); type: cell-based; conditions: Proteus mirabilis, LSI4933
Method: as §1

[5] = system: K. pneumoniae LSI CT1045; experiment: reference broth microdilution (rBMD); type: cell-based; conditions: Klebsiella pneumoniae, LSICT1045
Method: as §1

[6] = system: E. coli LSI 770; experiment: reference broth microdilution (rBMD); type: cell-based; conditions: for MIC: Escherichia coli, LSI770
Method: as §1
(§2) The inoculated urine cultures were incubated overnight at 35+2° C. Each urine culture was centrifuged, and the sediment used to prepare the BLAST inoculum of 5.0×10^5 CFU/mL to start the assay as described in the protocols section. […] The spiked urine samples were tested in parallel with isolates and the resultant BLAST MIC values were compared. In addition to the BLAST test, all the samples were also tested using the reference broth microdilution (rBMD) method and the MIC values were compared.

[7] = system: E. coli ATCC 25922; experiment: CytoSPAR BLAST antibiotic susceptibility test; type: cell-based; conditions: for MIC: Escherichia coli; for S, I, R: susceptible, intermediate, resistant category
Text: (§3) The disclosed technology, which is referred to as the CytoSPAR BLAST (Bacteria Labeling Antibiotic Susceptibility Test) system, is used to quantitatively assess bacterial minimal inhibitory concentration of antibiotics for in vitro susceptibility testing. Used as an aid in diagnosis for clinicians in determining potential treatment options for patients suspected of having a microbial infection, BLAST is intended to determine susceptibility of microorganisms to the listed antibiotics (or other antimicrobials) according to manufacturer's standards. The system is intended for use with clinical isolates from liquid culture and colonies grown on agar (solid medium) or directly from urine samples. Certain implementations of BLAST determine antibiotic susceptibility for a wide range of bacteria obtained from various types of patient samples, including samples from individuals suffering from urinary tract infections. The disclosed technology includes a high-throughput assay that directly detects bacterial susceptibility to a library of frequently used antibiotics and covers both Gram-negative and Gram-positive bacteria.
(§4) The test incorporates a non-canonical amino acid (ncAA) into newly produced proteins. The incorporated ncAA includes a reactive group which allows a specific modification and detection of the living bacteria. The assay involves bacterial incorporation of the ncAA, a chemical reaction between a reactive group and a fluorophore-tagged ligand, and detection of the newly fluorescent-tagged bacteria using a fluorescent plate reader or functionally similar device. The ncAA is added to bacterial growth media and is incorporated into newly synthesized bacterial proteins. The reactive groups on the ncAA are not naturally found in bacteria and act as a specific reactive group for bacteria undergoing active protein synthesis. […] The entire process is performed in a microtiter filter plate for high-throughput scale-up. Alternatively, a normal 96-well plate can also be used in which case centrifugation is used to wash the plate instead of filtration.
(§5) In an example embodiment, bacterial samples are first diluted and incubated in acclimatization media. After treatment with one or more antimicrobials, the ncAA is added and is taken up by living bacteria during protein biosynthesis in a process called labeling. […] The Click-Chemistry reaction between the alkyne group of the ncAA and the azide group of the fluorophore-tagged ligand requires the presence of copper in the reduced state-copper (I). In other implementations, the functional groups of the click chemistry reaction can be changed so that the ncAA has the azide group and the dye has the alkyne group. […] Other reducing agents may be used in the BLAST assay, for example, aldoses (sugars) including glyceraldehyde, glucose, and ribose to replace sodium ascorbate. Likewise, alternate chelators may be used (e.g., histidine in place of BTTAA). In some implementations, metal-free click chemistry reactions are performed without using copper.
(§6) Using the BLAST system, tests can be performed on isolates or direct urine samples. Isolates may be from urine, blood, or other body fluids. Isolated bacteria may be either Gram-positive or Gram-negative. In an example implementation, living bacterial samples in acclimatization media (Buffer A) are distributed in a microtiter filter plate, wherein certain predetermined wells include antibiotics of interest at different concentrations. These antibiotics are arrayed with increasing concentrations in adjacent wells so that the bacterial response can be measured against each specific concentration. The response is measured quantitatively, and a value that corresponds to the ability of the bacteria to metabolize and grow is measured.

[8] = system: P. mirabilis LSI 4698; experiment: CytoSPAR BLAST antibiotic susceptibility test; type: cell-based; conditions: for MIC: Proteus mirabilis, LSI4698, Table 7; for S, I, R: susceptible, intermediate, resistant category
Text: as §3, §4, §5, §6

[9] = system: E. coli LSI 770; experiment: CytoSPAR BLAST antibiotic susceptibility test; type: cell-based; conditions: for S, I, R: susceptible, intermediate, resistant category; for MIC: Escherichia coli
Text: as §3, §4, §5, §6

[10] = system: S. aureus ATCC 29213; experiment: CytoSPAR BLAST antibiotic susceptibility test; type: cell-based; conditions: for S, I, R: susceptible, intermediate, resistant category; for MIC: Staphylococcus aureus
Text: as §3, §4, §5, §6

[11] = system: K. pneumoniae LSI 4552; experiment: CytoSPAR BLAST antibiotic susceptibility test; type: cell-based; conditions: for MIC: Klebsiella pneumoniae, LSI4552, Table 7; for S, I, R: susceptible, intermediate, resistant category
Text: as §3, §4, §5, §6

[12] = system: P. mirabilis LSI 4933; experiment: CytoSPAR BLAST antibiotic susceptibility test; type: cell-based; conditions: for MIC: Proteus mirabilis, LSI4933, Table 7; for S, I, R: susceptible, intermediate, resistant category
Text: as §3, §4, §5, §6

[13] = system: K. pneumoniae LSI CT1045; experiment: CytoSPAR BLAST antibiotic susceptibility test; type: cell-based; conditions: for S, I, R: susceptible, intermediate, resistant category
Text: as §3, §4, §5, §6

[14] = system: S. aureus ATCC 29213; conditions: CLSI M100-Ed34E; cited from earlier work
[15] = system: S. aureus ATCC 29213; experiment: reference broth microdilution (rBMD); type: cell-based
Method: as §1, §2

[16] = ATCC25922, Table 8, isolates, 5 × 10^5 CFU/mL, read-out: MIC BLAST Isolates
[17] = ATCC25922, Table 8, spiked urine sample, 5 × 10^5 CFU/mL, read-out: MIC BLAST Spiked Urine
[18] = LSI770, Table 7, E. coli LSI 770, read-out: MIC BLAST
[19] = ATCC29213, S. aureus ATCC 29213, 5×10^6 CFUs/mL, cutoff 0.8, FIGS. 19-21, read-out: BLAST MIC
[20] = ATCC29213, Table 7, S. aureus ATCC 29213, read-out: MIC BLAST
[21] = ATCC29213, Table 8, S. aureus ATCC 29213, isolates, 5 × 10^5 CFU/mL, read-out: MIC BLAST Isolates
[22] = ATCC29213, Table 8, S. aureus ATCC 29213, spiked urine sample, 5 × 10^5 CFU/mL, read-out: MIC BLAST Spiked Urine
[23] = ATCC29213, read-out: MIC BLAST, Table 6, S. aureus ATCC 29213, optimized BLAST, cutoff 0.8

SMILES	MIC CLSI QC Range [1] [µg/mL]	MIC [2] [µg/mL]	MIC [3] [µg/mL]	MIC [4] [µg/mL]	MIC [5] [µg/mL]	MIC [6] [µg/mL]	MIC [7, 16] [µg/mL]	MIC [7, 17] [µg/mL]	S, I, R [7]	MIC [8] [µg/mL]	S, I, R [8]	S, I, R ([9]; E. coli LSI 770)	MIC [9, 18] [µg/mL]	S, I, R ([10]; S. aureus ATCC 29213)	MIC [10, 19] [µg/mL]	MIC [10, 20] [µg/mL]	MIC [10, 21] [µg/mL]	MIC [10, 22] [µg/mL]	MIC [11] [µg/mL]	S, I, R [11]	further results
C[C@H]1c2cccc(O)c2C(=O)C2=C(O)[C@]3(O)C(=O)C(C(N)=O)=C(O)[C@@H](N(C)C)[C@@H]3[C@@H](O)[C@@H]21 [Doxycycline, doxycycline]	0.5 to 2.0	32 (≈ 72 µM)	2 (≈ 4.5 µM)	4 (≈ 9 µM)	8 (≈ 18 µM)	64 (≈ 144 µM)	0.14 (≈ 0.315 µM)	0.28 (≈ 0.63 µM)	Susceptible	4.4 (≈ 9.9 µM)	Susceptible	Resistant	71 (≈ 160 µM)	Susceptible	< 0.0625	0.02 (≈ 0.045 µM)	0.02 (≈ 0.045 µM)	0.02 (≈ 0.045 µM)	1 (≈ 2.25 µM)	Susceptible	MIC CLSI QC Range ([1]; listed as doxycycline): 0.5 to 2 µg/mL; MIC rBMD ([6]; Table 8, E. coli LSI 770, geometric mean MIC rounded to nearest 2-fold dilution, n = 3): 64 µg/mL (≈ 144 µM); MIC ([7]; ATCC25922, Table 7, read-out: MIC BLAST): 0.14 µg/mL (≈ 0.315 µM); MIC ([9]; LSI770, Table 8, E. coli LSI 770, isolates, 5 × 10^5 CFU/mL, read-out: MIC BLAST Isolates): 71 µg/mL (≈ 160 µM); MIC ([9]; LSI770, Table 8, E. coli LSI 770, spiked urine sample, 5 × 10^5 CFU/mL, read-out: MIC BLAST Spiked Urine): 71 µg/mL (≈ 160 µM); MIC [12]: 1.1 µg/mL (≈ 2.48 µM); S, I, R [12]: Susceptible; S, I, R [13]: Resistant
CC1(C)S[C@@H]2[C@H](NC(=O)[C@H](N)c3ccccc3)C(=O)N2[C@H]1C(=O)O [Ampicillin, ampicillin]									Susceptible					Susceptible							MIC CLSI QC Range [14]: 0.5 to 2 µg/mL; MIC ([7]; ATCC25922, Table 6, optimized BLAST, cutoff 0.8, read-out: MIC BLAST): 4 µg/mL (≈ 11.4 µM)
Cc1nnc(SCC2=C(C(=O)O)N3C(=O)[C@@H](NC(=O)Cn4cnnn4)[C@H]3SC2)s1 [Cefazolin, cefazolin]		16 (≈ 35.2 µM)	8 (≈ 17.6 µM)	8 (≈ 17.6 µM)	> 256	> 256	4.44 (≈ 9.77 µM)	1.11 (≈ 2.44 µM)	Susceptible	4.4 (≈ 9.68 µM)	Susceptible	Resistant	> 142	Susceptible	< 0.125	0.14 (≈ 0.308 µM)	0.14 (≈ 0.308 µM)	0.28 (≈ 0.616 µM)	2 (≈ 4.4 µM)	Susceptible	MIC ([15]; Staphylococcus aureus, ATCC29213): 0.5 µg/mL (≈ 1.1 µM); MIC rBMD ([15]; Table 8, S. aureus ATCC 29213, geometric mean MIC rounded to nearest 2-fold dilution, n = 3): 0.5 µg/mL (≈ 1.1 µM); BLAST MIC ([7]; 5×10^6 CFUs/mL, cutoff 0.8, FIGS. 16-18): 2.0 µg/mL; MIC ([9]; LSI770, read-out: MIC BLAST Isolates): > 142 µg/mL; MIC ([9]; LSI770, read-out: MIC BLAST Spiked Urine): > 142 µg/mL; BLAST MIC ([10]; S. aureus ATCC 29213, FIG. 19): < 0.125 µg/mL; MIC [10, 23]: 0.125 µg/mL (≈ 0.275 µM); MIC [12]: 4.4 µg/mL (≈ 9.68 µM); S, I, R [12]: Susceptible; MIC ([13]; Klebsiella pneumoniae, LSICT1045, Table 7): > 142 µg/mL; S, I, R [13]: Resistant
CC1=C(C(=O)O)N2C(=O)[C@@H](NC(=O)[C@H](N)c3ccccc3)[C@H]2SC1 [Cephalexin, cephalexin]	1.0 to 4.0								Susceptible					Susceptible							MIC CLSI QC Range [14]: 0.25 to 1 µg/mL; MIC ([7]; ATCC25922, read-out: MIC BLAST, Table 6, optimized BLAST, cutoff 0.8): 16 µg/mL (≈ 46.1 µM); MIC [10, 23]: 1 µg/mL (≈ 2.88 µM)
